One assay concerns the target T1, MC4R (Homo sapiens, UniProt P32245).
T1 construct: host or cells: CHO-K1
Description: MC4R activation, cAMP HTRF assay in CHO-K1 cells. Particulars: eight concentrations, 0.01 to 100,000 nM. The class given is cell-based. Here is the method:
(§1) MCR-activation assays were performed by means of a cAMP HTRF (homogeneous time resolved fluorescence) assay for Gs-coupled receptors (cAMP Gs dynamic kit, Cisbio bioassays, 62AM4PEC). CHO-K1 cells expressing human recombinant MC1 receptor (EuroscreenFast, Gosselies, Belgium) (or MC2R, MC3R, MC4R, MC5R) were grown prior to the test in media without antibiotic. They were detached by gentle flushing with PBS-EDTA (5 mM EDTA), recovered by centrifugation, and resuspended in assay buffer (5 mM KCl, 1.25 mM MgSO4, 124 mM NaCl, 25 mM HEPES, 13.3 mM Glucose, 1.25 mM KH2PO4, 1.45 mM CaCl2, 0.5 g/L BSA, supplemented with 1 mM IBMX). Dose response curves were performed in parallel with the reference compounds. For agonist test (96-well), 12 µL of cells were mixed with 12 µL of the test compound diluted at increasing concentrations in assay buffer, and then incubated for 30 min at room temperature. After addition of the lysis buffer and 1 h incubation, fluorescence signal was measured, according to the manufacturer’s specifications, with the homogeneous time resolved fluorescence (HTRF) kit.
For orientation: TR-FRET usually uses a lanthanide donor and a delayed reading to cut background.

For a further assay, the target named is T2, MC2R (Homo sapiens, UniProt Q01718).
T2 construct: host or cells: CHO-K1
T2 sequence (Q01718 whole entry): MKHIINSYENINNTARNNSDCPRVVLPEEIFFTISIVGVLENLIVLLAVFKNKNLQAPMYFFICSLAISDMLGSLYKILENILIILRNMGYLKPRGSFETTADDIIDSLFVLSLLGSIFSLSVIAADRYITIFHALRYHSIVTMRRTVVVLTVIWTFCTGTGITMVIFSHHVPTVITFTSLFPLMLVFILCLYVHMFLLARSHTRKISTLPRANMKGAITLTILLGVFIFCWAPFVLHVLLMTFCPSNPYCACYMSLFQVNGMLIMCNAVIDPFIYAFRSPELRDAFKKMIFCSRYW
T2 sequence (Q8TCY5 whole entry partner): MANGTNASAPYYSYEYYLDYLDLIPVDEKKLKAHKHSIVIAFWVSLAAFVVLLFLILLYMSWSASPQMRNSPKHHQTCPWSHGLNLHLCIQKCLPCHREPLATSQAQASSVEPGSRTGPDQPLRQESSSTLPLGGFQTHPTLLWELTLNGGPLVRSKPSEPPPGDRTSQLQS
Description: MC2R activation, cAMP HTRF assay in CHO-K1 cells. The class given is cell-based. Here is the method:
as §1

Another assay concerns the target human MCH1R (Homo sapiens, UniProt Q99705). Description: MCH1R activation, Aequorin assay. It is filed as cell-based. The conditions noted are these: eight concentrations, 0.01 to 100,000 nM. As for the experimental part: Melanin-concentrating hormone receptor (MCHR), endothelin-1 receptor (ETBR), and serotonin-receptor (5-HT2AR) assays were performed by means of Aequorin assays. Recombinant cells co-expressing human MCH1R, MCH2R, ETBR, or 5-HT2AR and mitochondrial apoaequorin (MCH1R, MCH2R and 5-HT2AR cells also co-express recombinant Gα16 protein) (EuroscreenFast, Gosselies, Belgium), grown 18 h prior to the test in media without antibiotics, were detached by gentle flushing with PBS-EDTA (5 mM EDTA), recovered by centrifugation, and resuspended in assay buffer (DMEM/HAM’s F12 with HEPES + 0.1% BSA protease free). Cells were incubated under agitation at room temperature for at least 4 h with Coelenterazine h (Promega, X300X, 0.5 µM final concentration). Dose response curves with the reference compounds were performed before testing the compounds. For agonist testing, 50 µL of cell suspension was injected on 50 µL of test compound or reference agonist diluted in assay buffer and plated in a 96-well plate. The resulting emission of light was recorded using the Hamamatsu Functional Drug Screening System 6000 (FDSS 6000). […] Agonist activity of test compound was expressed as a percentage of the activity of the reference agonist at its EC100 concentration.

Another assay addresses T3, OP3R (Homo sapiens, UniProt P35372).
T3 construct: host or cells: CHO-K1 (membrane preparations)
Description: OP3R (mu opioid) activation, GTPγS scintillation proximity assay. It is filed as biochemical. Particulars: eight concentrations, 0.01 to 100,000 nM. As for the experimental part: (§2) Melatonin (MT1R and MT2R) and opioid receptor (OP1R, OP2R, and OP3R, corresponding to human delta, kappa, and mu opioid receptors) activation assays were performed by means of GTPγS scintillation proximity assays. For agonist testing, membrane preparations from CHO-K1 cells expressing each receptor (EuroscreenFast, Gosselies, Belgium) were mixed with guanosine diphosphate (GDP) (v/v). In parallel, GTPγ[^35S] (PerkinElmer, NEG030X, 0.1 nM final assay concentration) was mixed with PVT-WGA beads (Perkin Elmer, RPNQ001, 0.5 mg/well final assay density) (v/v) just before starting the reaction. The following reagents were then successively added in the wells of an Optiplate (Perkin Elmer): A total of 50 µL of test or reference ligand diluted in assay buffer, 10 µL of assay buffer (20 mM HEPES pH 7.4; 100–200 mM NaCl, 10 µg/mL saponin, MgCl2 at optimized concentration for the specific receptor, 0%–0.1% BSA), 20 µL of the membranes: GDP mix, and 20 µL of the GTPγ[^35S]: Beads mix. The plates were covered with a top seal, mixed on an orbital shaker for 2 min, and then incubated for 1 h at room temperature. Then the plates were centrifuged for 10 min at 2000 rpm, incubated at room temperature for 1 h, and counted for 1 min/well with a PerkinElmer TopCount™ reader.
(In a scintillation proximity assay essentially only radioactivity close to the scintillant gives light.)

For a further assay, the target named is T4, MT2R (Homo sapiens, UniProt P49286).
T4 construct: host or cells: CHO-K1 (membrane preparations)
T4 sequence (P49286 whole entry): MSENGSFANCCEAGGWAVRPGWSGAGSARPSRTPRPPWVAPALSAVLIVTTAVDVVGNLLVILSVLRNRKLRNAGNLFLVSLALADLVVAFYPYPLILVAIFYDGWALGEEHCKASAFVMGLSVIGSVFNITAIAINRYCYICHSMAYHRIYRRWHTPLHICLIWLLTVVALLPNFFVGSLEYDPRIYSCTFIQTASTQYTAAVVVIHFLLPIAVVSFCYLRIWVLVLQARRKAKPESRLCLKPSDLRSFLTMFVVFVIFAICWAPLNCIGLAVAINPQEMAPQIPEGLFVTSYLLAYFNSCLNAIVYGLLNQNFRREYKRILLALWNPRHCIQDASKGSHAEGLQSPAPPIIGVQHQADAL
Description: MT2R activation, GTPγS scintillation proximity assay on CHO-K1 membranes. It is filed as biochemical. The conditions noted are these: eight concentrations, 0.01 to 100,000 nM. As for the experimental part:
as §2

The target of assay [1] is T5, human recombinant MC1 receptor (Homo sapiens, UniProt Q01726).
T5 construct: host or cells: CHO-K1
T5 sequence (Q01726 whole entry): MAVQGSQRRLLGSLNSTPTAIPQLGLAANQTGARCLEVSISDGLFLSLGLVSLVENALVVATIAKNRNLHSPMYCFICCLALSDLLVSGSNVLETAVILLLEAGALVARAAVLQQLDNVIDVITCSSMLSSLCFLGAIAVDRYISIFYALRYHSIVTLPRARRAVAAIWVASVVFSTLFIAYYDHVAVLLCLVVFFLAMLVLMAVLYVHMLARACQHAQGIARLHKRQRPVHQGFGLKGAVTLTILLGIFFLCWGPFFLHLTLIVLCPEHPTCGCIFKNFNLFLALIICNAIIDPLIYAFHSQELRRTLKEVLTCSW
Put plainly: MC1R activation, cAMP HTRF assay in CHO-K1 cells. The class given is cell-based. Here is the method: as §1

The test system of assay [2] is B16 murine melanoma cells. Put plainly: Total melanin synthesis in mouse melanoma cells. It is filed as cell-based. The conditions noted are these: 72 h incubation. As for the experimental part:
B16 murine melanoma cells, which are highly responsive towards stimulation with alpha-melanocyte stimulating hormone (alpha-MSH), were grown in Dulbecco’s modified eagle medium (DMEM) with 1 g/L glucose supplemented with 3 g/L glucose, 2 mM L-glutamine, 50 U/mL Penicillin, 50 µg/mL Streptomycin, and 10% fetal calf serum. They were kept at 37 °C in a 5% CO2 atmosphere. Cells were grown for 24 h and then medium was replaced with medium containing the test or reference (NDP-alpha-MSH) compounds. After 72 h, total (intracellular and extracellular) melanin content was determined by absorbance spectroscopy at 405 nm. The results were quantified against a melanin standard curve.
Figure 1 Total melanin synthesis in mouse melanoma cells stimulated with MC1R-agonist peptides. MC1R-agonist peptides were incubated at various concentrations together with the near confluent mouse melanoma cell line B16F10. NDP-alpha-MSH at 100 nM was used as the reference and set to 100% melanin (red line). Error bars represent standard error of the mean of three experiments.

The next assay deals with T6, MT1R (Homo sapiens, UniProt P48039).
T6 construct: host or cells: CHO-K1 (membrane preparations)
T6 sequence (P48039 whole entry): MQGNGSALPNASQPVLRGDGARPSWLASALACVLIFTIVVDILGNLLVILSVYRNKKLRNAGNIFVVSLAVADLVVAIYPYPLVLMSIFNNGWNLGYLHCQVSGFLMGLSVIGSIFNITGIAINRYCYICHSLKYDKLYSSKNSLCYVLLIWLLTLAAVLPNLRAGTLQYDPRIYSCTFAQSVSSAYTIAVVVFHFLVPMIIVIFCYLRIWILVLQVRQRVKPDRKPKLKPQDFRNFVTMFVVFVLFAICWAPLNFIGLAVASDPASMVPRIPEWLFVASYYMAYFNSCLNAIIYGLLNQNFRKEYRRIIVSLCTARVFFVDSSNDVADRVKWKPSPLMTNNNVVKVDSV
Put plainly: MT1R activation, GTPγS scintillation proximity assay on CHO-K1 membranes. The class given is biochemical. The conditions noted are these: eight concentrations, 0.01 to 100,000 nM. As for the experimental part: as §2

Where a SMILES comes first, the peptide text is derived from it. [ ]: non-standard residue; d: D form. The star is where a group is joined. Bz = O=C(c1ccccc1)*; NPr2 = CCCN(CCC)*

T1 sequence (P32245 whole entry): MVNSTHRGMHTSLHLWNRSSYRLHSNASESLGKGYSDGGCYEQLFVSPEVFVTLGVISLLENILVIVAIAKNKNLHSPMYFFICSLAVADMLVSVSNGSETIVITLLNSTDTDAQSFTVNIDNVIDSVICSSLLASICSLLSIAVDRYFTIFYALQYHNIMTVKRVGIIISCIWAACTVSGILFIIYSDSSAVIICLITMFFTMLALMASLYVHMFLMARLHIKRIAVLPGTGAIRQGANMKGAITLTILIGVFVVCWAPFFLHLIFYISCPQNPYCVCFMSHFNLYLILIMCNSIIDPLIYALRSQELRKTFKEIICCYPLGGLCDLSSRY
T3 sequence (P35372 whole entry): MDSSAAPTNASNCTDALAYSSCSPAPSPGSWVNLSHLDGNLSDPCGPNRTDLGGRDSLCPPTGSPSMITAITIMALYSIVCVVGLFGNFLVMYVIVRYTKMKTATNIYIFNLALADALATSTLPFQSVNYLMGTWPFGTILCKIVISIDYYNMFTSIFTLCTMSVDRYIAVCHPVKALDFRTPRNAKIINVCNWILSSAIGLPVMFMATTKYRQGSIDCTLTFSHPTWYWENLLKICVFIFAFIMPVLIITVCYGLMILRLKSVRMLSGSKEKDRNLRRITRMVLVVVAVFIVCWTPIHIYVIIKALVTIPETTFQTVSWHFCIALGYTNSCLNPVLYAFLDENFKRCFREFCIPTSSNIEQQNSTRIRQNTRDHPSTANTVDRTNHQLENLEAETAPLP
Chain of human MCH1R (Q99705 whole entry): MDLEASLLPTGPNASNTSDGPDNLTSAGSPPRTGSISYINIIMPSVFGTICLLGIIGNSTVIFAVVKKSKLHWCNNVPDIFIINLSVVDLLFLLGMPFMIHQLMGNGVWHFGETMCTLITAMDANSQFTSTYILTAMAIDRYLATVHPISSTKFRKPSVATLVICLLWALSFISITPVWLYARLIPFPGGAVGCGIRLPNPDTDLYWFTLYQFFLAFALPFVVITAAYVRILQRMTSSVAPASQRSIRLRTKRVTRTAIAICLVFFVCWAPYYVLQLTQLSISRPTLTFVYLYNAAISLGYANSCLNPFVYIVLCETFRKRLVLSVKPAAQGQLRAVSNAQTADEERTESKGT

As usually defined, the EC50 is the concentration at which the effect is half-maximal. For the compound `CCCN(CCC)C(=O)[C@@H](Cc1c[nH]c2ccccc12)NC(=O)[C@H](CCCNC(=N)N)NC(=O)[C@@H](Cc1ccccc1)NC(=O)[C@H](Cc1c[nH]cn1)NC(=O)CNC(=O)c1ccccc1` [Peptide 4] (Bz-GH[dF]R[dW]-NPr2), the EC50 at MC4R is 0.136 µM; at MC2R (eight concentrations, 0.01 to 100,000 nM) it was greater than 100 µM; on human MCH1R, greater than 100 µM; on OP3R it was greater than 100 µM; on MT2R, greater than 100 µM; in assay [1] it was 0.00042 µM. The concentration giving a half-maximal response (EC50) at MT1R is greater than 100 µM. For the same compound, on MC2R (up to 100 µM), the “Activation of MC2R” value was “no significant activation”. The “Concentration at which maximal melanin synthesis activity comparable to 100 nM NDP-alpha-MSH is reached” value in assay [2] was “around 12.3 nM”.

Source of the values: publication PMC6940745 (International Journal of Molecular Sciences, 2019).
